For this assay, the target named is SARS-CoV-2 Main Protease (SARS-CoV-2) (UniProt P0DTD1).

Values joined by “and” are separate entries in the source; they are usually repeats but may differ in a detail not shown here. Equal entries are not always repeated.

One may read the IC50 as the midpoint of a concentration-inhibition curve. A high value points to weaker potency in that assay. The molecule `CC(C)(O)c1cccc(N(C(=O)c2cocn2)C(C(=O)NCCc2cccc(F)c2)c2cccnc2)c1` (stereo not drawn) returned an IC50 above 99500 nM.
With `CNS(=O)(=O)N1CCc2ccc(Cl)cc2C1C(=O)Nc1cncc2ccccc12` (stereo not drawn) the figure was 1550 nM; with `O=C(CCl)N1CCN(S(=O)(=O)c2c(F)cccc2F)CC1`, 3430 nM and 3140 nM; with `O=C(Cc1cccc(Cl)c1)Nc1cncc2c1CCCN2`, 7270 nM.
With `O=C(Cc1cc(Cl)cc(Nc2ccccc2-c2ccccc2)c1)Nc1cncc2ccccc12`, the 50% inhibitory concentration (IC50) is 1860 nM.
As to `O=C(CCl)N1CCCN(S(=O)(=O)c2cc(F)ccc2F)CC1`, the IC50 is 12100 nM.
As to `O=C(Nc1cncc2ccccc12)C1CCNc2cc(Cl)c(Cl)cc21` (stereo not drawn), the IC50 turned out to be 154 nM.
As for `O=C(NCCc1cccc(F)c1)C(c1cccnc1)N(C(=O)c1cocn1)c1ccc(C(F)(F)F)nc1` (stereo not drawn), the IC50 was found to be 36400 nM.
With `O=C(Cc1cc(Cl)cc(Nc2ccc(I)cc2)c1)Nc1cncc2ccccc12` the figure was 1840 nM.
With `Cc1nn2c(CNc3ccc(Cn4cncn4)cc3)c(C)nc2s1` the figure was above 99500 nM; with `O=C(Cc1cc(Cl)cc(Nc2c(F)cc(F)cc2[N+](=O)[O-])c1)Nc1cncc2ccccc12`, 2040 nM; with `O=C(NCCc1cccc(F)c1)C(c1cccnc1)N(C(=O)c1cocn1)c1ccc(N2CCCC2=O)cc1` (stereo not drawn), 76600 nM.
With `CC(C)n1nccc1C(=O)N1Cc2ccc(Cl)cc2C2(CCN(c3cncc4ccccc34)C2=O)C1` (stereo not drawn) the figure was 268 nM; with `COc1ccc(N(C(=O)c2ccco2)C(C(=O)NCCc2cccc(F)c2)c2cccnc2)cc1NC(=O)C1CCCCC1` (stereo not drawn), 62700 nM.
Molecule `COc1ncc(Br)cc1Nc1cc(Cl)cc(CC(=O)Nc2cncc3ccccc23)c1` had an IC50 of 681 nM.
With `CS(=O)(=O)c1ccc2c(NC(=O)C3CN(CC(=O)NCC4CC4)C(=O)c4ccc(Cl)cc43)cncc2c1` (stereo not drawn) the figure was 179 nM and 174 nM.
With `CCCCn1nnnc1CNC1CCc2nc(C(C)C)nn2C1` (stereo not drawn) the figure was above 99500 nM; with `O=C(Nc1cncc2ccccc12)C1CCCc2ccc(Cl)cc21` (stereo not drawn), 324 nM; with `O=C(/C=C/c1ccccc1)N1CCN(S(=O)(=O)c2cccc(F)c2)CC1`, above 99500 nM.
Then `N#Cc1ccc(CN2CCC(C3CCNC3)CC2)cc1` (stereo not drawn), with 2060 nM.
Turning to `O=C(CCl)N1CCN(Cc2ccsc2)CC1`, the IC50 was 3270 nM and 3740 nM.
For the molecule `O=S(=O)(Nc1ccccc1)c1cc2c(cc1OCc1ccccc1)OCO2`, the IC50 was 72800 nM.
With `O=C1N(c2cncc3ccccc23)CCC12CN(S(=O)(=O)CC1CS(=O)(=O)C1)Cc1ccc(Cl)cc12` (stereo not drawn) the figure was 353 nM.
Consider `CN(C)C(=O)CNC(=O)C(c1cccnc1)N(C(=O)c1ccco1)c1ccc(C(C)(C)C)cc1` (stereo not drawn), for which the IC50 came to 10900 nM.
With `O=C(Cc1cc(Cl)cc(Nc2ncccc2C(F)(F)F)c1)Nc1cncc2ccccc12` the figure was 1940 nM; with `N#Cc1ccc(Cl)c(Nc2cc(Cl)cc(CC(=O)Nc3cncc4ccccc34)c2)c1`, 1990 nM.
`C=CC(=O)NCC(=O)N(Cc1ccccc1O)C[C@@H]1CCCO1` (stereo in doubt): the IC50 was above 99500 nM.
With `O=C(Cc1cc(Cl)cc(Nc2ccc(I)c(F)c2)c1)Nc1cncc2ccccc12` the figure was 2040 nM.
Molecule `C=CC(=O)N(c1ccc(C2(C)CC2)cc1)C(C(=O)Nc1cccc(CC)c1)c1cccnc1` (stereo not drawn) showed an IC50 above 99000 nM.
With `CN(C)C(=O)C(CNC(=O)[C@@H](c1ccccc1)N1Cc2ccccc2C1=O)c1ccccc1` (stereo in doubt) the figure was above 99500 nM; with `COc1ccncc1NC(=O)Cc1cccc(Cl)c1`, 21600 nM; with `Cc1c(Cl)ccc2c1[C@H](C(=O)Nc1cncc3ccccc13)CCO2` (stereo in doubt), 3670 nM.
With `COc1ccn2c(NC(=O)Cc3cccc(Cl)c3)cnc2c1` the figure was above 99500 nM; with `C=CC(=O)N(c1ccc(C(C)(C)C)cc1)C(C(=O)NCc1ccccc1)c1cccnc1` (stereo not drawn), 33300 nM.
With `O=C(Cc1cc(Cl)cc(OC2CC(=O)N2)c1)Nc1cncc2ccccc12` (stereo not drawn) the figure was 274 nM and 150 nM.
As for `O=C(Nc1cncc2cc(CN3CCNCC3)ccc12)C1CCOc2ccc(Cl)cc21` (stereo not drawn), the half-inhibitory concentration (IC50) was determined as 1830 nM.
For the molecule `CC(C)CN1CC(C)(C(=O)Nc2cncc3ccccc23)c2cc(Cl)ccc2S1(=O)=O` (stereo not drawn), the 50% inhibitory concentration (IC50) is 153 nM.
Take `COC1CC2(C1)CC(N(C(=O)c1cocn1)C(C(=O)NCCc1cccc(F)c1)c1cccnc1)C2` (stereo not drawn): the half-inhibitory concentration (IC50) was above 99500 nM.
With `CC(C)(C)c1ccc(N(C(=O)c2ccon2)C(C(=O)NCCc2cccc(F)c2)c2cccnc2)cc1` (stereo not drawn) the figure was 4260 nM.
With `CC(C)CCN1C(=O)C(=O)c2cc(Br)ccc21` the figure was above 99500 nM; with `Nc1nn(C(=O)Cc2cccc(Cl)c2)c2cccnc12`, above 99500 nM.
With `CC(C)(C)c1ccc(N(C(=O)c2cc(CO)n[nH]2)C(C(=O)NCCc2cccc(F)c2)c2cccnc2)cc1` (stereo not drawn) the figure was 18800 nM; with `Cc1ccc(Nc2cc(Cl)cc(CC(=O)Nc3cncc4ccccc34)c2)c(Br)c1`, 1900 nM.
For the molecule `CC(C)(C)c1ccc(N(C(=O)c2ocnc2C(F)(F)F)C(C(=O)NCCc2cccc(F)c2)c2cccnc2)cc1` (stereo not drawn), the IC50 is above 99500 nM.
As for `CC(C)N(C)S(=O)(=O)N1Cc2ccc(Cl)cc2C(C(=O)Nc2cncc3ccccc23)C1` (stereo not drawn), the IC50 worked out at 126 nM.
On to `O=C(Cc1cc(Cl)cc(Nc2cc(C(F)(F)F)ccn2)c1)Nc1cncc2ccccc12`, for which the IC50 was determined as 1840 nM.
Molecule `C[C@H](N)C(=O)N[C@@H](CCC(N)=O)C(=O)O` (stereo in doubt) displayed an IC50 above 99000 nM.
As to `Cn1cnnc1-c1cccc(NS(=O)(=O)c2c(Cl)nc3sccn23)c1`, the IC50 is above 99500 nM.
With `O=C(Nc1ccc(Cl)cc1)[C@@H](c1ccccc1)N1Cc2ccccc2C1=O` (stereo in doubt) the figure was above 99500 nM; with `O=C(Nc1cc(=O)[nH]c2ccccc12)C1CCOc2ccc(Cl)cc21` (stereo not drawn), above 99500 nM; with `CC1CN(CCO)CCN1C(=O)CC1(C(=O)Nc2cncc3ccccc23)CCOc2ccc(Cl)cc21` (stereo not drawn), 14500 nM.
With `O=C(Cc1cc(Cl)cc(Nc2ccc(Oc3ccccc3Cl)cc2)c1)Nc1cncc2ccccc12` the figure was 2490 nM.
With `O=C(Cc1cccc(Cl)c1)Nc1cncc2nc[nH]c12` the figure was 13300 nM; with `O=C(Cc1cc(Cl)cc(Nc2nc3cc(Cl)ccc3s2)c1)Nc1cncc2ccccc12`, 2040 nM; with `O=C(Cc1cc(Cl)cc(Nc2ccc(N3CCOCC3=O)cc2)c1)Nc1cncc2ccccc12`, 1990 nM.
The molecule `C=CC(=O)N(c1ccc(C(C)(C)C)cc1)C(C(=O)NCCCSC)c1cccnc1` (stereo not drawn) came in with an IC50 of 25500 nM.
Then `O=C(Cc1cc(Cl)cc(Nc2ccccc2OCC(F)(F)F)c1)Nc1cncc2ccccc12`, with 1960 nM; and `CN1Cc2ccc(Cl)cc2C(C(=O)Nc2cncc3ccccc23)C1` (stereo not drawn), with 2010 nM.
In turn, `CNC(=O)C1(CC(=O)Nc2cncc3ccccc23)CCOc2ccc(Cl)cc21` (stereo not drawn) came in with an IC50 of 30700 nM.
With `O=C(Nc1cncc2c1CCCC2)[C@@H]1CNS(=O)(=O)c2ccc(Cl)cc21` (stereo in doubt) the figure was 205 nM; with `CC(C)CS(=O)(=O)N1Cc2ccc(Cl)cc2C(C(=O)Nc2cncc3ccc(C(C)(C)O)cc23)C1` (stereo not drawn), 1220 nM; with `N#CC1(CS(=O)(=O)N2Cc3ccc(Cl)cc3C3(CCN(c4cncc5ccc(F)cc45)C3=O)C2)CC1` (stereo not drawn), 828 nM.
With `CC(C)(C)N(Cc1ccccc1)c1cc(Cl)cc(CC(=O)Nc2cncc3ccccc23)c1` the figure was 1910 nM.
